Data taken from patent publication US8785488B2 (Exelixis Patent Company LLC, priority 2009, dated 2014).

Legend:
[1] = molecular target: T1, h-TGR5 (Homo sapiens, UniProt Q8TDU6); experiment: TGR5 cAMP Assay using Cisbio cAMP Dynamic2 htrf kit (hTGR5CRE-luc HEK 293 cells); type: cell-based; conditions: h-TGR5 cAMP EC50, Table 1; read-out: cAMP (EC50)
T1 construct: expressed in transfected cells
T1 sequence (Q8TDU6 1-330): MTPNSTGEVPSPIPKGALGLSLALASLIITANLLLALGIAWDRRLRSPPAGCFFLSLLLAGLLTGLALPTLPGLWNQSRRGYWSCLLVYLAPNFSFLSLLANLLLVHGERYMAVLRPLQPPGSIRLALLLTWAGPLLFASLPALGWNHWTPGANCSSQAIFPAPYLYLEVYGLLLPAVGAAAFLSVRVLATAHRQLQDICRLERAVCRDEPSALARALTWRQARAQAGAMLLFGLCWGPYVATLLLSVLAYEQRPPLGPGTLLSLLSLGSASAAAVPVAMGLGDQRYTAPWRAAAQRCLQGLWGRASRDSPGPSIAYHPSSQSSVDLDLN
Method: Compounds were diluted in DPBS with 5% DMSO (8-point serial dilution by half logs) in a 96-well plate and 1 μL was transferred to a 384-well assay plate in quadruplicate. The d2-cAMP and anti-cAMP Ab-cryptate stock solution were prepared as per the instructions in the Cisbio™ (Bedford, Mass.) kit. […] Cells were adjusted to 0.44×10^6 cells/ml followed by addition of IBMX to a final concentration of 0.5 mM. The cells were then mixed with d2-cAMP solution (7.1 mL cells+100 ul d2-cAMP) and 4000 cells (9 μL) were transferred to each well of the 384-well assay plate. Cells without d2-cAMP were added to eight wells as a negative control. The plate was covered and incubated at room temp for 30 min. Then 10 μL of Ab-cryptate solution was added to each well of the assay plate and incubated for 1 hr. The plate was read on an EnVision™ plate reader (Perkin-Elmer, Waltham, Mass.) and the DeltaF value was calculated as per the instructions in the Cisbio™ kit.
In the following tables, EC50 values determined according to the TGR5 cAMP Assay described herein (cAMP); EC50 values determined according to the TGR5/CRE-Luciferiase Assay described herein (CRE-Luc). […] The following compounds in Tables 1 and 2 were made by using procedures described in the above Schemes and Examples, and, where applicable, by making any necessary substitutions of known materials that one skilled in the art would ordinarily understand how to do.

[2] = molecular target: T2, human TGR5 (h-TGR5) (Homo sapiens, UniProt Q8TDU6); experiment: TGR5/CRE-Luciferiase Assay (HEK 293 hTGR5/CRE-Luc cells); type: cell-based; conditions: h-TGR5 CRE-Luc EC50, Table 1; read-out: CRE-Luc (EC50)
T2 construct: expressed in transfected cells
T2 sequence (Q8TDU6 1-330): T1 sequence (Q8TDU6 1-330)
Outline: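 HEK293 cells stably carrying hTGR5 and a CRE-luciferase reporter were exposed to serially diluted compounds (diluted in DMEM with 5% DMSO) for 6 h. Cells were then lysed in luciferase buffer, luminescence was read, and EC50 values were derived from dose-response curves.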

Molecule | EC50 [1] [nM] | EC50 [2] [nM]
4-({[5-{1-[4-chloro-3-(methyloxy)phenyl]-1- methylethyl}-1-(4-fIuorophenyl)-1H-imidazol- 2-yl]thio}methyl)-3,5-difluoro-N-[(pyrrolidin- 1-ylamino)carbonyl]benzenesulfonamide | < 100 | < 100
CC(C)(c1ccc(F)cc1)c1cnc(SCc2ccc(S(=O)(=O)NC(=O)NN3CCCC3)cc2Cl)n1-c1ccc(F)c(Cl)c1 [3-chloro-4-[({1-(3-chloro-4-fluorophenyl)-5-[1-(4-fluorophenyl)-1-methylethyl]-1H-imidazol-2-yl}thio)methyl]-N-[(pyrrolidin-1-ylamino)carbonyl]benzenesulfonamide] | 1000 to 10000 | 100 to 1000
COc1cc(-n2c(C(C)(C)c3ccc(S(C)(=O)=O)cc3)cnc2SCc2ccc(Cl)c(-c3nnn[nH]3)c2)ccc1F [5-(2-chloro-5-{[(1-[4-fluoro-3-(methyloxy)phenyl]-5-{1-methyl-1-[4-(methylsulfonyl)phenyl]ethyl}-1H-imidazol-2-yl)thio]methyl}phenyl)-1H-tetrazole] | 100 to 1000 | 100 to 1000
CC(C)(c1ccc(Cl)c(Cl)c1)c1cnc(SCc2ccc(Cl)c(-c3nnn[nH]3)c2)n1-c1ccc(F)cc1 [5-{2-chloro-5-[({5-[1-(3,4-dichlorophenyl)-1-methylethyl]-1-(4-fluorophenyl)-1H-imidazol-2-yl}thio)methyl]phenyl}-1H-tetrazole] | 100 to 1000 | 100 to 1000
CC(C)(c1ccc(F)c(C(F)F)c1)c1cnc(SCc2ccc(S(=O)(=O)NC(=O)NN3CCCC3)cc2Cl)n1-c1ccc(F)cc1 [3-chloro-4-({[5-{1-[3-(difluoromethyl)-4-fluorophenyl]-1-methylethyl}-1-(4-fluorophenyl)-1H-imidazol-2-yl]thio}methyl)-N-[(pyrrolidin-1-ylamino)carbonyl]benzenesulfonamide] | 1000 to 10000 | –
COc1cc(-n2c(C(C)(C)c3ccc(F)cc3)cnc2SCc2ccc(S(=O)(=O)NC(=O)NN3CCCC3)cc2Cl)ccc1F [3-chloro-4-[({1-[4-fluoro-3-(methyloxy)phenyl]-5-[1-(4-fluorophenyl)-1-methylethyl]-1H-imidazol-2-yl}thio)methyl]-N-[(pyrrolidin-1-ylamino)carbonyl]benzenesulfonamide] | 100 to 1000 | –
CC(C)(c1ccc(Cl)cc1)c1cnc(SCc2ccc(S(=O)(=O)NC(=O)NN3CCCC3)cc2Cl)n1-c1ccc(F)cc1F [3-chloro-4-[({5-[1-(4-chlorophenyl)-1-methylethyl]-1-(2,4-difluorophenyl)-1H-imidazol-2-yl}thio)methyl]-N-[(pyrrolidin-1-ylamino)carbonyl]benzenesulfonamide] | 1000 to 10000 | –
CC(C)(c1ccc(S(C)(=O)=O)cc1)c1cnc(SCc2c(F)cc(C(=O)O)cc2F)n1-c1ccc(F)cn1 [3,5-difluoro-4-({[1-(5-fluoropyridin-2-yl)-5-{1-methyl-1-[4-(methylsulfonyl)phenyl]ethyl}-1H-imidazol-2-yl]thio}methyl)benzoic acid] | 1000 to 10000 | –
Cc1cc(-n2c(C(C)(C)c3ccc(S(C)(=O)=O)cc3)cnc2SCc2ccc(S(=O)(=O)NC(=O)NN3CCCC3)cc2Cl)ccc1F [3-chloro-4-({[1-(4-fluoro-3-methylphenyl)-5-{1-methyl-1-[4-(methylsulfonyl)phenyl]ethyl}-1H-imidazol-2-yl]thio}methyl)-N-[(pyrrolidin-1-ylamino)carbonyl]benzenesulfonamide] | 1000 to 10000 | –

Next, values leading:

EC50 [1] [nM] | EC50 [2] [nM] | Molecule
< 100 | < 100 | CCOC(=O)NS(=O)(=O)c1ccc(CSc2ncc(C(C)(C)c3ccc(Cl)c(OC)c3)n2-c2ccc(F)cc2)c(Cl)c1 [ethyl {[3-chloro-4-({[5-{1-[4-chloro-3-(methyloxy)phenyl]-1-methylethyl}-1-(4-fluorophenyl)-1H-imidazol-2-yl]thio}methyl)phenyl]sulfonyl}carbamate]
< 100 | < 100 | COc1cc(C(C)(C)c2cnc(SCc3c(F)cc(CCCCCNC(=N)N)cc3F)n2-c2ccc(F)cc2)ccc1Cl [1-{5-[4-({[5-{1-[4-chloro-3-(methyloxy)pheny1]-1-methylethyl}-1-(4-fluorophenyl)-1H-imidazol-2-yl]thio}methyl)-3,5-difluorophenyl]pentyl}guanidine]
100 to 1000 | 100 to 1000 | CC(C)(c1ccc(Cl)c(Cl)c1)c1cnc(SCc2ccc(F)c(C(N)=O)c2)n1-c1ccc(F)cc1 [5-[({5-[1-(3,4-dichlorophenyl)-1-methylethyl]-1-(4-fluorophenyl)-1H-imidazol-2-yl}thio)methyl]-2-fluorobenzamide]
100 to 1000 | 100 to 1000 | COc1ccc(C(C)(C)c2cnc(SCc3ccc(S(=O)(=O)NC(=O)NN4CCCC4)cc3Cl)n2-c2ccc(F)cc2)cc1Cl [3-chloro-4-({[5-{1-[3-chloro-4-(methyloxy)phenyl]-1-methylethyl}-1-(4-fluorophenyl)-1H-imidazol-2-yl]thio}methyl)-N-[(pyrrolidin-1-ylamino)carbonyl]benzenesulfonamide]
< 100 | < 100 | COc1cc(-n2c(C(C)(C)c3ccc(S(N)(=O)=O)c(Cl)c3)cnc2SCc2c(F)cc(S(=O)(=O)NC(=O)NN3CCOCC3)cc2F)ccc1F [4-{[(5-{1-[4-(aminosulfonyl)-3-chlorophenyl]-1-methylethyl}-1-[4-fluoro-3-(methyloxy)phenyl]-1H-imidazol-2-yl)thio]methyl}-3,5-difluoro-N-[(morpholin-4-ylamino)carbonyl]benzenesulfonamide]
< 100 | < 100 | COc1cc(C(C)(C)c2cnc(SCc3c(F)cc(OCCCNC(=N)N)cc3Cl)n2-c2ccc(F)cc2)ccc1F [1-(3-{[3-chloro-5-fluoro-4-({[5-{1-[4-fluoro-3-(methyloxy)phenyl]-1-methylethyl}-1-(4-fluorophenyl)-1H-imidazol-2-yl]thio}methyl)phenyl]oxy}propyl)guanidine]
< 100 | < 100 | COc1cc(C(C)(C)c2cnc(SCc3c(F)cc(OCCNC(=N)N)cc3Cl)n2-c2ccc(F)cc2)ccc1Cl [1-(2-{[3-chloro-4-({[5-{1-[4-chloro-3-(methyloxy)phenyl]-1-methylethyl}-1-(4-fluorophenyl)-1H-imidazol-2-yl]thio}methyl)-5-fluorophenyl]oxy}ethyl)guanidine]
100 to 1000 | 100 to 1000 | COc1cc(C(C)(C)c2cnc(SCc3ccc(S(=O)(=O)NC(=O)NN4CCCC4)cc3Cl)n2-c2ccc(F)cn2)ccc1Cl [3-chloro-4-({[5-{1-[4-chloro-3-(methyloxy)phenyl]-1-methylethyl}-1-(5-fluoropyridin-2-yl)-1H-imidazol-2-yl]thio}methyl)-N-[(pyrrolidin-1-ylamino)carbonyl]benzenesulfonamide]
100 to 1000 | < 100 | CC(C)(c1ccc(Cl)c(Cl)c1)c1cnc(SCc2ccc(OCCO)c(S(N)(=O)=O)c2)n1-c1ccc(F)cc1 [5-[({5-[1-(3,4-dichlorophenyl)-1-methylethyl]-1-(4-fluorophenyl)-1H-imidazol-2-yl}thio)methyl]-2-[(2-hydroxyethyl)oxy]benzenesulfonamide]
100 to 1000 | < 100 | CC(C)(O)COc1ccc(CSc2ncc(C(C)(C)c3ccc(Cl)c(Cl)c3)n2-c2ccc(F)cc2)cc1S(N)(=O)=O [5-[({5-[1-(3,4-dichlorophenyl)-1-methylethyl]-1-(4-fluorophenyl)-1H-imidazol-2-yl}thio)methyl]-2-[(2-hydroxy-2-methylpropyl)oxy]benzenesulfonamide]
< 100 | < 100 | COc1cc(C(C)(C)c2cnc(SCc3c(F)cc(OCCCNC(=N)N)cc3F)n2-c2ccc(F)cc2)ccc1F [1-(3-{[3,5-difluoro-4-({[5-{1-[4-fluoro-3-(methyloxy)phenyl]-1-methylethyl}-1-(4-fluorophenyl)-1H-imidazol-2-yl]thio}methyl)phenyl]oxy}propyl)guanidine]
< 100 | 100 to 1000 | CC(C)(c1ccc(Cl)c(Cl)c1)c1cnc(SCc2ccc(C(=O)NCCS(=O)(=O)O)cc2F)n1-c1ccc(F)cc1 [2-[({4-[({5-[1-(3,4-dichlorophenyl)-1-methylethyl]-1-(4-fluorophenyl)-1H-imidazol-2-yl}thio)methyl]-3-fluorophenyl}carbonyl)amino]ethanesulfonic acid-sodium (1:1)]
